Results reported in patent US20260015599A1, “TARGETING THE STING1 GENE BY CRISPR ACTIVATION” (AARHUS UNIVERSITET, priority 2022, published 2026).
Where two headings read alike, the source gives them in different places. Each block holds one molecule with its values, some of them ahead of it.

Legend:
human STING gene = assay: CRISPR activation of STING in SW872, STING expression by immunoblotting and qPCR; format: cell-based; conditions: SW872, electroporated with dCas9-VPR mRNA, 48 hours
Description: To upregulate STING, CRISPR activation technique was used. Synthetic guideRNAs (sgRNAs) are used to guide a deactivated Cas9 (dCas9) to a site in the vicinity of the transcriptional start site of STING. Attached to the dCas9 are three transcription activators (VP64, Rta, p65; collectively termed VPR), which can activate transcription of the target gene. The dCas9-VPR is delivered as mRNA and is translated by the translation apparatus in the host cell.
To test the ability of the individual sgRNAs to upregulate STING expression, each sgRNA was tested individually as well as all 5 sgRNAs together in the human sarcoma cell line SW872 or HT1080. The sequence of the DNA binding part of the 5 sgRNAs were the following:
sgRNAs were purchased from Synthego and comprise 2′-O-Methyl at the three first and last bases as well as 3′ phosphorothioate bonds between the first three and last two bases.
dCas9-VPR mRNA (SEQ ID NO: 29 as produced by in vitro transcription) (or purchased from Horizon Discovery, Cat#: CAS12211) comprises full substitution of uridine with pseudouridine and cotranscriptional capping with CleanCap AG in a 1:4 ratio between GTP and CleanCap.
For each sample 500,000 cells were resuspended in PBS, spun down at 300 xg for 5 minutes at room temperature (RT) and resuspended in 17 μL opti-MEM (Gibco, Cat#: 31985070). 1.9 μL of dCas9-VPR mRNA (Horizon Discovery, Cat#: CAS12211) (SEQ ID NO: 29) and 1 μg of sgRNA (1 μg of each sgRNA in the sample with all 5 sgRNAs) were added. The cell suspensions were added to an electroporation strip and electroporated on a Lonza 4D nucleofector using pulse code CM138. Afterwards, the electroporation strip containing the cells were left for 3 minutes on the bench top to allow cells to reform. The samples were diluted in preheated DMEM complete medium and cells were seeded at 50-100.000 cells per well in a 24-well plate and left for various days before harvest. […]

[1] = tested on: cGAS-STING signalling pathway; assay: Stimulation of human sarcoma cell lines with cGAS, STING and RIG-I agonists, cytokine secretion; format: cell-based
Experimental: For stimulation in vitro, 30,000 or 60,000 cells were seeded per well in a 24-well plate one day prior to stimulation. Cells were stimulated by transfection using Lipofectamine 2000 transfection reagent (Invitrogen, Cat#: 11668019) combined with the following agents: 2 μg/mL HT-DNA (Sigma-Aldrich, Cat#: D6898), 8 μg/mL 2′3′-cGAMP (Invivogen, Cat#: tlrl-nacga23-5), and 40 ng/ml Poly(I:C)-LMW (Invivogen, Cat#: tlrl-picw). An untreated control and a lipofectamine 2000 control were included. All samples were run in biological duplicates or triplicates. […]
Supernatants from cells stimulated with HT-DNA and Poly(I:C) were analyzed for Interferonβ (IFNβ), CXCL10 and IL-6 using Meso Scale Discovery multiplex Enzyme-linked Immunosorbent assay.
Supernatants from cells stimulated with 2′3′-cGAMP were analyzed for CXCL10 and IL-6 using sandwich ELISA (RnD Systems, Cat#: DY299 and Cat#: DY206). CCL5 content in supernatants from cells stimulated with HT-DNA and Poly(I:C) were analyzed using sandwich ELISA (RnD Systems, Cat#: DY278). […]
Functional type I IFN in supernatants from cells stimulated with 2′3′-cGAMP was quantified using a type I interferon reporter cell assay (HEK-Blue IFN-α/β) (Invivogen, Cat#: hkb-ifnab) according to manufacturer's guidelines. […] The concentration of type I IFN was determined from a standard curve of IFN-a (PBL Assay Science, Cat#: 11100-1). […]

SW872 = assay: Doxorubicin IC50 viability determination (CellTiter 96 AQueous One Solution Cell Proliferation Assay); format: cell-based; conditions: Homo sapiens, SW872, 48 h, 48 hrs of treatment, read-out: IC50 viability concentration
Experimental: Prior to analysing the immunological reponse to doxorubicin treatment (Sigma-Aldrich, Cat#: D1515-10 MG), and IC50 viability concentration was determined for both wt cells and electroporated cells (mock and STING+). A two-fold dilution of doxorubicin including 10 different dilutions ranging from 16 μM to 0.03125 μM was added to a cell culture and viability was determined using CellTiter 96 AQueous One Solution Cell Proliferation Assay (Promega, Cat#: G3580) after 48 hrs of treatment.
(§1) Wt, mock and STING+ cells were treated with IC50 values of doxorubicin in biological triplicates (IC50 for wt: 0.5 μM and IC50 for mock and STING+: 0.3 μM) and left for 48 hrs before harvest.

STING = assay: Cytokine gene expression (qPCR) in STING-reactivated SW872 after doxorubicin treatment; format: cell-based, human; conditions: SW872 after CRISPRa targeting STING (sgRNA #4 + dCas9-VPR mRNA), doxorubicin at IC50, 48 hrs
Experimental: For each sample 500,000 cells were resuspended in PBS, spun down at 300 xG for 5 minutes at room temperature (RT) and resuspended in 17 μL opti-MEM (Gibco, Cat#: 31985070). 1.9 μL of dCas9-VPR mRNA (Horizon Discovery, Cat#: CAS12211) and 1 μg of sgRNA was added. The cell suspension was added to an electroporation strip and electroporated on a Lonza 4D nucleofector using pulse code CM138. Afterwards, the electroporation strip containing the cells was left for 3 minutes on the bench top to allow cells to reform. The samples were diluted in preheated DMEM complete and 60,000 wt cells and 120,000 mock and STING+ cells were seeded in a 12-well plate one day prior to doxorubicin treatment to allow cells to adhere.
as §1
RNA from cells was purified using NucleoSpin RNA for the isolation of total RNA (Macherey-Nagel, Cat#: 740984.250M) according to manufacturer's guidelines. cDNA was synthesized using iScript cDNA Synthesis Kit (Bio-Rad, Cat#: 1708891) according to manufacturer's guidelines using 400ng of RNA. Real-time PCR was carried out using 1 μL of 10 ng/μL cDNA in a total volume of 10 μL using KAPA SYBR FAST (Roche, Cat#: KK4611) and the following targets and primers: […]
Samples were run in biological triplicates and technical duplicates on a 384 well plate (Hounisen, Cat#: 72.1985.202). The analysis was performed using the LightCycler 480 software version LCS480 1.5.1.62(Roche).
The cancer cell line SW872 was electroporated with dCas9-VPR mRNA and either nothing (mock) or sgRNA #4 and after additional 24 hrs each cell condition was exposed to the anthracycline chemotherapy drug doxorubicin. Doxorubicin's mode-of-action is to increase DNA damage leakage and this has shown to induce a STING-dependent immune response in conjunction to the cellular toxicity is has on cancer cells.
Supernatants were collected 48 hrs after doxorubicin treatment and immune activation was assessed by qPCR (FIG. 8A-E).

Molecule: sgRNA #4: sgRNA targeting human STING gene, DNA binding part CAGAAACCGGCAGGCUCUCU (listed as RNA, chemistry not fully specified)
STING expression (immunoblotting, qPCR) (human STING gene): equally or better than the combination of all five sgRNAs
STING expression (immunoblotting, qPCR) (human STING gene; listed as SEQ ID NO: 4): highest activity
STING expression (immunoblotting, qPCR) (human STING gene; listed as sgRNA#4): highest expression level

Molecule: Nc1nc2c(ncn2[C@@H]2O[C@@H]3COP(=O)(O)O[C@H]4[C@@H](O)[C@H](n5cnc6c(N)ncnc65)O[C@@H]4COP(=O)(O)O[C@@H]2[C@@H]3O)c(=O)[nH]1 [2′3′-cGAMP, 2′,3′-cyclic GMP-AMP]
cell responsiveness (secretion levels of IFNb, CXCL10, IL6 or CCL5) ([1]; SW872, 20-24 hours of activation): not responding

IC50 (SW872; wt SW872 cells): 500 nM
Molecule: COc1cccc2c1C(=O)c1c(O)c3c(c(O)c1C2=O)C[C@@](O)(C(=O)CO)C[C@@H]3O[C@H]1C[C@H](N)[C@H](O)[C@H](C)O1 [doxorubicin]
IC50 (SW872; mock and STING+ (electroporated) SW872 cells): 300 nM
gene expression of CCL5 (STING): increased
gene expression of CXCL10 (STING): increased
gene expression of IFNb (STING): increased

Molecule: Poly(I:C)
cell responsiveness (secretion levels of IFNb, CXCL10, IL6 or CCL5) ([1]; all four cell lines (HT-1080, SW872, SW982, SK-LMS1), 20-24 hours of activation): responded
